Measurements reported in patent publication US8663616B2, “Enzymatic peracid generation for use in oral care products” (E I du Pont de Nemours and Company, priority 2010, dated 2014).

T1: Wild Type (SEQ ID NO: 16) (Thermotoga maritima, UniProt Q9WXT2)
T1 construct: made in house; host or cells: E. coli
T1 sequence (Q9WXT2 1-325): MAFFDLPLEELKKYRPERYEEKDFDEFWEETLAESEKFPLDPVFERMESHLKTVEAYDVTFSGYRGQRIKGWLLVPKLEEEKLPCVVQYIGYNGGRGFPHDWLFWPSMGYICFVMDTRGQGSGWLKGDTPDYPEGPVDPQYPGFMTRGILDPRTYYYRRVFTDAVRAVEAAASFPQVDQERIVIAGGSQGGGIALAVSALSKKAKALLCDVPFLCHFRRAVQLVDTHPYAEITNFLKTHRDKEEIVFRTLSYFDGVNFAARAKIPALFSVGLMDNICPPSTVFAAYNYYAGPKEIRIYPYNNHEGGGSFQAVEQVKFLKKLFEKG


How the values were obtained:
[1] = target: T2, C277S (SEQ ID NO: 424) (Thermotoga maritima, UniProt Q9WXT2, C277S); format: biochemical; settings: 100 mM ester, 60 mM H2O2, 40 ppm enzyme, 95 mM phosphate pH 7.2, 37° C.
T2 construct: made in house; host or cells: E. coli
Protocol: (§1) To test various enzymes against an ester substrate, it was convenient to run up to 4 reactions simultaneously by staggering the beginning of each individual reaction by 0.5-1 min. Each individual reaction was performed in a glass vessel (height: 76 mm; o.d.: 33 mm; i.d.: 24 mm) equipped with a magnetic stirring bar. Four reaction vessels were banded together and kept at constant temperature in a jacketed one-liter, stainless steel, tempering beaker (KGW IsoTherm, # TSS-G 1000W) with circulating water controlled by a Thermo NesLab recirculation bath (Model # RTE-7 Digital One). Buffer (6 mL, 100 mM sodium phosphate buffer, pH 7.2) was added to each reaction vessel and allowed to equilibrate to 37° C. The ester substrate of interest was added to achieve 100 mM concentration. […] To follow the production of peracetic acid, 80 μL samples from each reaction were removed at specific intervals from 1 to 15 minutes. The sample was immediately quenched in a microfuge filter tube (NanoSep 30K VWR cat #82031-354) containing a volume and concentration of phosphoric acid solution that was sufficient to stop the enzymatic reaction (by lowering the pH between 2 and 3) and to dilute the sample for convenient HPLC analyses. The acid-quenched samples were centrifuged for 5 minutes to remove any particulates.

[2] = target: T3, C277T/R296P (SEQ ID NO: 476) (Thermotoga maritima, UniProt Q9WXT2, C277T/R296P); format: biochemical; settings: 100 mM ester, 60 mM H2O2, 40 ppm enzyme, 95 mM phosphate pH 7.2, 37° C.
T3 construct: made in house; host or cells: E. coli
T3 sequence (Q9WXT2 whole entry C277T/R296P): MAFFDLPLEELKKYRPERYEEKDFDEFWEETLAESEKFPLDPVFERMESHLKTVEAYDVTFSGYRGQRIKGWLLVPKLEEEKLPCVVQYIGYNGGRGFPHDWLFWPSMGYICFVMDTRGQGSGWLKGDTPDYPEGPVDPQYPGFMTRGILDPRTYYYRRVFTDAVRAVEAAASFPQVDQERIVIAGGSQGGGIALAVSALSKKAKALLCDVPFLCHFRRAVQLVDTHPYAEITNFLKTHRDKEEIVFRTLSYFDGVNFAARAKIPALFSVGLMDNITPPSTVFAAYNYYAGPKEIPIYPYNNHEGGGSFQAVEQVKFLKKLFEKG
Protocol: as §1

[3] = target: T4, C277T (SEQ ID NO: 437) (Thermotoga maritima, UniProt Q9WXT2, C277T); format: biochemical; settings: 100 mM ester, 60 mM H2O2, 40 ppm enzyme, 95 mM phosphate pH 7.2, 37° C.
T4 construct: made in house; host or cells: E. coli
T4 sequence (Q9WXT2 whole entry C277T): as the sequence (Q9WXT2 whole entry C277T/R296P) above, with P296R counted along it
Protocol: as §1

[4] = target: T1, Wild Type (SEQ ID NO: 16); test: Maximum peracetic acid from ester substrates with wild type perhydrolase (Example 14); format: biochemical; settings: 100 mM ester, 60 mM H2O2, 40 ppm enzyme, 95 mM phosphate pH 7.2, 37° C.
Protocol: as §1

[5] = Two-step bleaching of coffee-tea stained bovine enamel (Example 16)
Protocol: Bovine enamel incisors were prepared as indicated in Example 1. The stained enamel blocks were embedded in a 48 well plate to protect the dentin backside from solution exposure. A solution of 10 μM of each enzyme in 10 mM phosphate buffer, pH 7.2 was prepared and 500 μL of solution was incubated with each enamel substrate for 60 min. The enzyme solution was removed and each well was rinsed three times with an additional 500 μL of buffer. The enamel blocks were placed in a fresh well for the whitening process. A solution with a final concentration of 40 mM triacetin, 100 mM H2O2 in 50 mM phosphate pH 7.2 buffer was freshly prepared and 500 μL of solution was added to each enamel block. Over the course of 1 hr the enamel blocks were removed and a color measurement was obtained and then each was returned to the solution in the well plate. The whiteness index for each sample was monitored.

[6] = Retention of perhydrolase on hydroxyapatite (SDS-PAGE band strength); format: binding; settings: relative to enzyme input = 1
Protocol: Perhydrolase enzymes listed in Table 6 were assessed for binding to hydroxyapatite. A dispersion of hydroxyapatite nanoparticles (Aldrich 677418) was made at 0.5% solids in 10 mM phosphate buffer at pH 7.2. Enzyme stock solution was added to the hydroxyapatite dispersion to a final concentration of 10 μM and incubated for 30 min in a microcentrifuge tube with gentle agitation. Each sample was centrifuged for 5 min at 10000 rpm. The supernatant was removed and additional buffer was added. The particles were resuspended and transferred to a new tube. The process was repeated two additional times. Samples of the original input of enzyme, the supernatant removed from the particles with each wash step and the final particles were prepared for SDS-PAGE analysis by combining 60 μL of sample, 20 μL of LDS buffer and 8 μL of reducing agent (Nu-PAGE). Samples were heated at 85° C. for 10 min. 25 μL of each sample was loaded on a 4-12% BisTris gel (Invitrogen) and run at 115 volts for 1.5 h. The gel was removed and stained with a 1:1 dilution of Simply Blue stain (Invitrogen) overnight and destained for 4 h in deionized water. The gel was analyzed and detection of enzyme in each fraction was estimated based on the presence of a band. The results of the analysis are provided in Table 7 with an indication of the relative strength of each band in the gel compared to the enzyme input (input=1) to determine the strength of binding between the hydroxyapatite surface and each enzyme.

Molecule	Maximum Peracetic Acid (PAA) (ppm), C277S (SEQ ID NO: 424) [1] [ppm]	Maximum Peracetic Acid (PAA) (ppm), C277T/R296P (SEQ ID NO: 476) [2] [ppm]	Maximum Peracetic Acid (PAA) (ppm), C277T (SEQ ID NO: 437) [3] [ppm]	Maximum Peracetic Acid (PAA) (ppm), Wild Type (SEQ ID NO: 16) [4] [ppm]	also measured
CC(=O)OC1OC[C@@H](OC(C)=O)[C@@H](OC(C)=O)[C@H]1OC(C)=O (stereo partly drawn) [1,2,3,4-tetra-O-acetyl-ribopyranose]	3525	3503	3361	2278	
CC(=O)OC[C@H]1OC(OC(C)=O)[C@H](OC(C)=O)[C@@H]1OC(C)=O (stereo partly drawn) [1,2,3,5-tetra-O-acetyl-ribofuranose]	3397	3270	3472	2828	
CC(=O)OC[C@H]1OC(OC(C)=O)[C@@H](O)[C@@H](OC(C)=O)[C@@H]1OC(C)=O (stereo partly drawn) [1,3,4,6-tetra-O-acetyl-mannopyranose]	3593		3436	2361	
CC(=O)OCCCCCOC(C)=O [1,5-pentanediol diacetate]	335	364	484	435	
CC(=O)OC[C@H]1O[C@@H](S)[C@H](OC(C)=O)[C@@H](OC(C)=O)[C@@H]1OC(C)=O [1-thio-β-D glucose-2,3,4,6-tetraacetate]	0	147	171	156	
CC(=O)N[C@@H]1[C@@H](OC(C)=O)[C@H](OC(C)=O)[C@@H](COC(C)=O)O[C@@H]1Cl [2-acetamido-2-deoxy-3,4,6 triacetyl-1-chloride-α-D-glucopyranose]	863	876	899	548	
C=CC(COC(C)=O)OC(C)=O (stereo not drawn) [3,4-diacetoxy-1-butene]	2281	2478	2285	1692	
CC(=O)Oc1ccc(C(=O)O)cc1 [4-acetoxybenzoic acid]	604	485	426	398	
CC(=O)OCc1ccc(C=O)o1 [5-acetoxymethyl-2-furaldehyde]	1185	1136	1125	778	
CC(=O)OCC(O)COC(C)=O [Diacetin]	1013	1087	1132	1160	
CC(=O)OCCOCCOC(C)=O [Diethylene glycol diacetate]	469	530	653	424	
CC(=O)OCCOC(C)=O [Ethylene glycol diacetate]	1007	1020	1059	794	
COCC(C)OC(C)=O (stereo not drawn) [Propylene glycol methyl ether acetate]	173	181	197	177	
CC(=O)OC[C@H](OC(C)=O)[C@@H](OC(C)=O)[C@H](OC(C)=O)[C@@H](COC(C)=O)OC(C)=O [Sorbitol hexaacetate]	712	616	705	381	
CC(=O)OC[C@H]1OC=C[C@@H](OC(C)=O)[C@@H]1OC(C)=O [Tri-O-acetyl glucal]	1047	1034	1319	729	
CC(=O)OC[C@H]1O[C@H](OC(C)=O)[C@@H](OC(C)=O)[C@@H](OC(C)=O)[C@@H]1OC(C)=O [α-D-mannopyranose pentaacetate]	4017	3752	4212	4023	
CC(=O)OC[C@H]1O[C@@H](OC(C)=O)[C@H](OC(C)=O)[C@@H](OC(C)=O)[C@H]1OC(C)=O [β-D-galactose pentaacetate]	2539	1947	2546	764	
CC(=O)O[C@@H]1O[C@H](CO)[C@@H](OC(C)=O)[C@H](OC(C)=O)[C@H]1OC(C)=O [β-D-glucopyranose,1,2,3,4-tetraacetate]	2309	2235	2225	2129	
CO[C@@H]1OC[C@@H](OC(C)=O)[C@H](OC(C)=O)[C@H]1OC(C)=O [β-methyl xyloside triacetin]	3856		3635		
EZ-4: C277S-link1-(GK)5, SEQ ID NO: 427 (protein) MAFFDLPLEELKKYRPERYEEKDFDEFWEETLAESEKFPLDPVFERMESHLKTVEAYDVTFSGYRGQRIKGWLLVPKLEEEKLPCVVQYIGYNGGRGFPHDWLFWPSMGYICFVMDTRGQGSGWLKGDTPDYPEGPVDPQYPGFMTRGILDPRTYYYRRVFTDAVRAVEAAASFPQVDQERIVIAGGSQGGGIALAVSALSKKAKALLCDVPFLCHFRRAVQLVDTHPYAEITNFLKTHRDKEEIVFRTLSYFDGVNFAARAKIPALFSVGLMDNISPPSTVFAAYNYYAGPKEIRIYPYNNHEGGGSFQAVEQVKFLKKLFEKGGPGSGGAGSPGSAGGPGSGKGKGKGKGK					Whiteness Index 0 min ([5]; two-step: 10 μM enzyme 60 min, rinsed, then 40 mM triacetin, 100 mM H2O2, pH 7.2, before step 2): −158.9; ΔWI ([5]; two-step, 0 to 60 min): 69.4; Whiteness Index 5 min ([5]; two-step, 5 min in triacetin/H2O2): −143.6; Whiteness Index 15 min ([5]; two-step, 15 min in triacetin/H2O2): −149.5; Whiteness Index 30 min ([5]; two-step, 30 min in triacetin/H2O2): −129.4; Whiteness Index 45 min ([5]; two-step, 45 min in triacetin/H2O2): −106.5; Whiteness Index 60 min ([5]; two-step, 60 min in triacetin/H2O2): −89.5; Unbound (relative band strength) ([6]; 10 μM enzyme, 0.5% hydroxyapatite, pH 7.2): 0.5; HAP Particles (relative band strength) ([6]; enzyme retained on particles after washes): 0.4; Wash1 (relative band strength) [6]: 0.05; Wash2 (relative band strength) [6]: 0.05
